We go through three molecules from EP0569598A1, “BENZOXAZINONE DERIVATIVE” (JAPAN TOBACCO INC., priority 1991, dated 1993).

Structures are written as SMILES.

For test [1], the target named is T1, bovine pancreatic α-chmotrypsin (CYT) (Bos taurus, UniProt P00766).
T1 construct: bovine pancreatic α-chmotrypsin (CYT); purchased Sigma Co., Ltd
Put plainly: CYT inhibitory activity (synthetic substrate, pNA release). The class given is biochemical. Conditions: pH 8.0; CYT 3.4 nM, substrate 0.273 mM; read-out: IC₅₀ value CYT. On the procedure:
(§1) Activities of the Benzoxazine derivatives of the present invention against human leukocyte elastase (HLE), human sputum elastase (HSE), human cathepsin G (HCG), bovine pancreatic α-chmotrypsin (CYT) and bovine pancreatic trypsin (TRY) were measured by the following method.
(§2) A test compound was dissolved in DMSO (for fluorometry) and prepared various concentration of the solution. To each concentration was added 2-fold volume of 0.2M Tris-HCl (pH8.6), thereby obtaining a test solution. Synthetic substrate (Funakoshi, L-1335) was dissolved in DMSO and 2-volume of 0.2M Tris-HCl (pH8.6) was added thereto, thereby obtaining a substrate solution. The reaction was performed using a microplate having 96 wells (Nunk). Six-time reactions were repeated for each concentration. One handred and forty µl of an enzyme solution containing 0.2M Tris-HCl (pH8.6), 30 µl of a test solution and 30 µl of a substrate solution per well of the microplate were respectively pre-incubated at 37°C for 10 minutes. After completion of the incubation, the enzyme solution was mixed with the test sample and incubated for 10 minutes and then the substrate solution was added to perform an enzyme reaction. The absorbance of released P-nitroanilide (PNA) was measured at the wave length of 405 nm by means of a microplate reader (MTP-100; CORONA), thereby determining the substrate decomposition. The rate of the substrate decomposition was shown as an average value of 6 repeated reactions. The inhibitory concentration of a test compound relative to the amount of the substrate decomposition in the reaction mixture without a test compound was regarded as an IC₅₀ value. The final concentration of HLE and a synthesized substrate in the reaction mixture were 5.63 nM and 0.2625 mM, respectively.
a) Enzyme obtaining route CYT was obtained from Sigma Co., Ltd.
Substantially the same method as used in the measurement of the HLE inhibitory activity was used except that a buffer solution (pH 8.0) was used. The final concentration of CYT and synthetic substrate (Funakoshi, L-1010) in a reaction mixture were 3.4 nM and 0.273 mM, respectively.

In test [2] the target is T2, human leukocyte elastase (HLE) (Homo sapiens, UniProt P08246).
T2 construct: the mixed solution was subjected to density gradient centrifugation, thereby obtaining neutrophiles; from tissue; host or cells: neutrophils from human vein blood (buffy coat)
T2 sequence (P08246 30-247 limits assumed): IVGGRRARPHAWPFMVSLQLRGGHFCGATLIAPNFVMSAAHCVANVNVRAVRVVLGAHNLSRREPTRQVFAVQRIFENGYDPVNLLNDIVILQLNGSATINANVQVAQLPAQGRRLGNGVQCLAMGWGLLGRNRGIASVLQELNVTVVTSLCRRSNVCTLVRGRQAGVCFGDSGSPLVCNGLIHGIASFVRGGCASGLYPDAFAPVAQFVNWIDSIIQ
Put plainly: HLE inhibitory activity (synthetic substrate, pNA release, absorbance 405 nm). In kind it is biochemical. The note with it: pH 8.6; HLE 5.63 nM, substrate 0.2625 mM; 37°C; read-out: IC₅₀ value HLE. On the procedure:
as §1
A buffy coat was obtained by subjecting human vein blood to centrifugation. To the buffy coat was added distilled water to make a hypotonic solution, thereby bursting erythrocytes. To the residual blood cell component was added a 33.4% of Conrey 400 solution/9% Ficoll solution (the ratio of the former solution to the latter solution is 10:24), and the mixed solution was subjected to density gradient centrifugation, thereby obtaining neutrophiles. The neutrophile fraction was washed with Hanks' buffer for three times and then cells were recovered and cryopreserved at -80°C until use. The cryopreserved-cells were thawed with warm water at 37°C and suspended in a 9-fold volume of lysis buffer containing 0.1M Tris-HCl (pH7.5), 1M MgCl₂ and 0.1% Brij 35. The suspended cells are destroyed by means of polotoron with ice-cooling. The cell suspension was subjected to centrifugation at 100,000 x g for 1 hour. After removing precipitates, 2-fold volume of a Tris-HCl buffer containing 5 mM Tris-HCl(pH 7.5), 1M NaCl and 1.1% Brij 35 was added to the supernatant, thereby obtaining a crude solution of an enzyme extract. The crude solution was subjected to aprotinine affinity column and extracted with an elution buffer containing […] of glycine-HCl (pH 3.3), 1M NaCl and 0.1% Brij 35, thereby obtaining an active fraction. The obtained active fraction was further subjected to MONO S-ion-exchange chromatography and eluted with 2M NaCl linear gradient. The obtained fraction was dialyzed against 25 mM Tris-HCl (pH8.6) and lyophilized, thereby obtained an enzyme sample.
as §2

For test [3], the target named is T3, human cathepsin G (HCG) (Homo sapiens, UniProt P08311).
T3 construct: purchased Cosmo Bio Inc
T3 sequence (P08311 21-244): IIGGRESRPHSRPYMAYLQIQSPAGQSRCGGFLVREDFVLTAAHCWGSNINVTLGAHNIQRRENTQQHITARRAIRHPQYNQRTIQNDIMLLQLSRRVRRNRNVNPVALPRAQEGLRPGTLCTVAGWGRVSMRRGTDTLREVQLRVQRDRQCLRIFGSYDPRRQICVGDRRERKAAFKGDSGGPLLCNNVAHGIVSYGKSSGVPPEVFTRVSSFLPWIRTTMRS
Put plainly: HCG inhibitory activity (synthetic substrate, pNA release). The note with it: pH 7.5; HCG 50 nM, substrate 0.5 mM; read-out: IC₅₀ value HCG. In kind it is biochemical. How it is done:
as §1, §2
a) Enzyme obtaining route HCG was obtained from Cosmo Bio Inc.
The same method as in the measurement of HLE inhibitory activity was used except that a buffer solution (pH 7.5) was used. The final concentration of HCG and synthetic substrate (Funakoshi, L-1010) in a reaction mixture were 50 nM and 0.5 mM, respectively.

For test [4], the system named is Neutrophile Infiltration of Carrageenin-induced Air Pouch inflammation. Put plainly: Suppression of neutrophile infiltration in carrageenin-induced air pouch inflammation. The class given is in vivo, rat. Conditions: Dose 10.9 µmol into the air pouch immediately after carrageenin, exudate cells five hours later, SD female rats. How it is done: SD female rats in 5 weeks old, having the weight in the range of 110 to 130g were used. A group was regarded to have 5 rats. In the first step, an air pouch was formed by a hypodermic injection of 8 ml of air on the back of a rat under ether anesthesia. Twenty four hours later, to the air pouch was added 5 ml of a saline containing 1% carrageenin (Wako Co., Ltd.). A test compound of the present invention, which has been dissolved in 200 µl DMSO (dimethylsulfoxide), was administered in the air pouch immediately after the carrageenin injection.
Five hours later, the rat was killed and the blood was released. Then, 5 ml of PBS containing EDTA (ethylenediamine tetraacetate) was injected in the air pouch. The exudate in the air pouch was washed and collected. An aliquot of the exudate was measured by a colter counter and determined the number of cells in the collected exudate.
The value subtracting migrating cell number in an experiment performed without carrageenin injection from the migrating cell number in a control experiment administering no the compound of the present invention was regarded as 100, the chemotaxis suppressing activity was determined as the following formula: Cell Infiltration Suppressing Activity (%) [formula] = 100 - S/T x 100 [formula] = 100 - (U - V )/(W - V) x 100 [formula] […]

In test [5] the test system is neutrophiles from the human peripheral blood. Briefly: Human neutrophile chemotaxis suppressing activity (fMLP, chemotaxis chamber). The class given is cell-based. Conditions: 10-⁷M fMLP, one hour at 37°C; for Chemotaxis: experiment without compound regarded as 100. On the procedure:
The neutrophile fraction (60% percoal fraction having neutrophile purity of 90% or more) was taken from the human peripheral blood by means of percoal density gradient centrifugation at 2300 rpm for 20 minutes.
An intercell having a pore diameter of 5 µm, containing 8 x 10⁵ of neutrophiles and the compound of the present invention adjusted in various concentrations was placed in each well of a chemotaxis chamber (KURABO), in which has been added 1300 µl of a medium containing 10-⁷M of formylmethionyl-leucyl-phenylalanine (fMLP), which is a neutrophile chemotaxis factor. After incubating for one hour at 37°C in an incubator containing 5% carbon dioxide, the number of cells migrating from the upper side of the intercell membrane into the lower side of the membrane in the chamber was counted by the following method. That is, the lower side surface of the intercell membrane was washed with PBS for 4 times and fixed with methanol and dyed with hematoxylin-eosin solution. The membrane was removed from the intercell and placed on a slide, dried in air, followed by sealing with Canada balsam. The cell number was microscopically counted in 5 visual fields. Taking average number of the five fields, the average was employed as the number of migrating cells. The value subtracting the migrating cell number in a control experiment containing no fMLP from the cell number in an experiment containing no the compound of the present invention was regarded as 100, the chemotaxis suppressing activity was determined as the following formula: Neutrophilic chemotaxis suppressing activity (%) [formula] = 100 - A/B x 100 [formula] = 100 - (C - D)/(E-D) x 100 [formula] Where: • A: chemotaxis measured in the experiment containing the compound of the present invention; • B: chemotaxis measured in the experiment not containing the compound of the present invention • C: the number of migrating cells measured in the experiment containing both the compound of the present invention and fMLP. • D: the number of migrating cells in the experiment containing neither the compound of the present invention nor fMLP. • E: the number of migrating cells in the experiment containing only fMLP.

Test [6] concerns the target T4, bovine pancreatic trypsin (TRY) (Bos taurus, UniProt P00760).
T4 construct: bovine pancreatic trypsin (TRY); purchased Sigma Inc
T4 sequence (P00760 24-246): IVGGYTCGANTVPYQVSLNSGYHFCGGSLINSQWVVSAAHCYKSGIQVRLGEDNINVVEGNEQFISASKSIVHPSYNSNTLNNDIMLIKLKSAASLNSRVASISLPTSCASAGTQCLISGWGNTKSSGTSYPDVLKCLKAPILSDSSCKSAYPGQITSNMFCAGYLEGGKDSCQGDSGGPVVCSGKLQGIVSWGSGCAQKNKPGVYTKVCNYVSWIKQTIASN
Put plainly: TRY inhibitory activity (synthetic substrate, pNA release). The note with it: pH 7.5; TRY 25 nM, substrate Z-Arg-pNA 1.0 mM; read-out: IC₅₀ value TRY. The class given is biochemical. How it is done:
as §1
as §2, with “The rate of the substrate decomposition was shown as an average value of 6 repeated reactions. The inhibitory concentration of a test compound relative to the amount of the substrate decomposition in the reaction mixture without a test compound was regarded as an IC₅₀ value. The final concentration of HLE and a synthesized substrate in the reaction mixture were 5.63 nM and 0.2625 mM, respectively.” left out

The target of test [7] is T5, human sputum elastase (HSE) (Homo sapiens, UniProt P08246).
T5 construct: human sputum elastase (HSE); purchased Sigma Inc
T5 sequence (P08246 30-267): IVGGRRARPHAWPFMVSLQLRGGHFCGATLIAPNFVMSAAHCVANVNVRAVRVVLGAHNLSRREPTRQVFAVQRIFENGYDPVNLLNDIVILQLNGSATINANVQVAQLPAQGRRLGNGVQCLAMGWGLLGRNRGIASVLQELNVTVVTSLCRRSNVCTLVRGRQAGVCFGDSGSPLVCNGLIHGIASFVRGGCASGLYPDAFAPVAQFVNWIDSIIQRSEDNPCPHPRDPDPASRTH
Briefly: HSE inhibitory activity (synthetic substrate, pNA release). The class given is biochemical. Conditions: pH 7.0; HSE 10 nM, substrate 0.25 mM; read-out: IC₅₀ value HSE. How it is done:
as §1
as §2, with “The rate of the substrate decomposition was shown as an average value of 6 repeated reactions. The inhibitory concentration of a test compound relative to the amount of the substrate decomposition in the reaction mixture without a test compound was regarded as an IC₅₀ value. The final concentration of HLE and a synthesized substrate in the reaction mixture were 5.63 nM and 0.2625 mM, respectively.” left out

Consider `Cc1cccc2nc([C@@H](NC(=O)COC(c3ccccc3)c3ccccn3)C(C)C)oc(=O)c12` (mixture of isomers) [Compound 3, 5-methyl-2-[2-methyl-1(S)-[[[(±)-α-(2-pyridyl)benzyloxy]acetyl]amino]propyl]-4H-3,1-benzoxazin-4-one], for which the IC50 is 2080 nM in test [1], 340 nM in test [2] and 58300 nM in test [3]. In addition, the “Rate (%) of Suppressing Cell Infietration” value in test [4] came to 33.9%. Further, in test [4] (control regarded as 100), the “Cell Infiltration” value amounted to 66.1.

For `Cc1cccc2nc([C@@H](NC(=O)COC(c3ccccc3)c3ccccc3)C(C)C)oc(=O)c12` [Compound 2, 2-[1(S)-[[(diphenylmethoxy)acetyl]amino]-2-methylpropyl]-5-methyl-4H-3,1-benzoxazin-4-one], the Chemotaxis in test [5] (Concentration 0.125 µM) came out at 70.6; in test [5] (Concentration 1.000 µM) it was 57.4. Besides, the activity at 0.125 µM in test [5] (Homo sapiens, 1 h, Concentration 0.125 µM) was determined as 29.4%. Also, the activity at 1 µM in test [5] (Homo sapiens, 1 h, Concentration 1.000 µM) came to 42.6%. Further, the IC50 in test [1] is 830 nM; in test [2], 220 nM; in test [3] it was more than 27400 nM.

On to `Cc1cccc2nc([C@@H](NC(=O)OCC34CC5CC(CC(C5)C3)C4)C(C)C)oc(=O)c12` [Compound 6, 2-[1(S)-[[(1-adamantyl)methoxy-carbonyl]amino]-2-methylpropyl]-5-methyl-4H-3,1-benzoxazin-4-one], for which the IC50 in test [6] is more than 12600 nM; in test [1], 1550 nM; in test [7], 260 nM; in test [2] it was 210 nM; in test [3], more than 25000 nM.
